Measured values from article PMC8619920, “New Polyesterified Ursane Derivatives from Leaves of Maesa membranacea and Their Cytotoxic Activity” (Molecules, 2021).

Experiments:
[1] = Cytotoxicity, LDH assay, PNT-2 cells; assay type: cell-based, human; settings: human, 24 h, mean ± SD of three, read-out: Cell viability PNT-2
Description: (§1) Cytotoxic activity was tested on human cancer and normal cells, grouped in three panels, namely: prostate, skin and gastrointestinal. The prostate panel consisted of prostate cancer cell lines Du145 (ATCC HTB-81) and PC3 (ATCC CRL-1435), and prostate epithelial cells PNT-2 (ECACC 95012613). Melanoma cell lines A375 (ATCC CRL-1619) and HTB140 (ATCC Hs 294T) together with skin keratinocytes HaCaT (obtained as a kind gift of prof. Marta Michalik, Department of Cell Biology, Jagiellonian University, Kraków, Poland) were included into the skin panel. The gastrointestinal panel of cells comprised colon cancer cell lines Caco-2 (ATCC HTB-37) and HT29 (ATCC HTB-38). Du145 cells were grown in Modified Eagle’s Medium with low (1.0 g/L) glucose concentration, HT29, PC3 and PNT-2 cells in Dulbecco’s Modified Eagle’s Media: F12 HAM Nutrient Mixture, Caco-2 in Modified Eagle’s Medium with NEAA (no-essential amino acids) while melanoma cells and keratinocytes were maintained in Modified Eagle’s Medium with high (4.5 g/L) glucose concentration. The culture media (all supplied by Sigma-Aldrich Co.; St. Louis, MO, USA) contained antibiotics and 10% fetal bovine serum (FBS). All cultures were maintained at 37 °C, in a humidified, 5% CO2 containing, atmosphere.
(§2) The examined triterpenes were diluted in the culture media from freshly made stock solutions in MeOH (10 mg/mL) to the working concentrations (from 0 to 100 μg/mL).
(§3) Cell viability was determined as it was described previously. Cells suspended in the nutrient medium were transferred into 96-well microtiter plates (density 1.5 × 10^4 per well), and preincubated for 24 h (37 °C, 5% CO2). Then, the culture medium was replaced with the medium containing different concentrations of 1 or 2 (1–100 μg/mL). After 24 h of incubation, viability of the cells was determined using colorimetric lactate dehydrogenase (LDH) assay, in comparison to the controls to which corresponding aliquots of MeOH diluted with culture media were added. Cells grown in the medium without the tested compounds were used as control I (negative) and the positive control (control II) was obtained by incubation of the cells in the medium containing 1% Triton X-100. LDH released from the damaged cells into the cell culture medium was quantified by measuring the absorbance at 490 nm using Synergy II Biotek (BioTek Instruments, Winooski, VT, USA) microplate reader. Cytotoxicities of the examined compounds were calculated as follows: [(absorbance of the tested sample − absorbance of control I)/(absorbance of control II − absorbance of control I)] × 100. Results were means of three independent measurements (± SD). Doxorubicin (Ebewe Pharma GmbH., Unterach, Austria) was used as a reference cytostatic drug. The IC50 values were determined by plotting the percentage viability of the cells versus concentration and the adequate calculations made using AAT Bioquest website program (https://www.aatbio.com/tools/ic50-calculator, accessed on 29 October 2021).

[2] = system: PNT-2 human normal prostate epithelium cells; experiment: Cytotoxicity, LDH assay, PNT-2 cells; assay type: cell-based; settings: Homo sapiens, PNT2; 24 h treatment, 5–100 μg/mL
Description: as §1, §2, §3

[3] = Cytotoxicity, LDH assay, DU145 cells; assay type: cell-based, human; settings: human, DU145 prostate carcinoma cells, 24 h, mean ± SD of three, read-out: Cell viability DU145
Description: as §1, §2, §3

[4] = system: DU145 human prostate carcinoma cells; experiment: Cytotoxicity, LDH assay, DU145 cells; assay type: cell-based; settings: Homo sapiens, DU-145, 24 h, 24 h treatment, 5–100 μg/mL
Description: as §1, §2, §3

[5] = system: PC3 human prostate adenocarcinoma cells; experiment: Cytotoxicity, LDH assay, PC3 cells; assay type: cell-based
Description: as §1, §2, §3

[6] = Cytotoxicity, LDH assay, HaCaT cells; assay type: cell-based, human; settings: human, 24 h, mean ± SD of three, read-out: Cell viability HaCaT
Description: as §1, §2, §3

[7] = system: HaCaT human immortalized keratinocytes; experiment: Cytotoxicity, LDH assay, HaCaT cells; assay type: cell-based; settings: Homo sapiens, HaCaT; 24 h treatment, 5–100 μg/mL
Description: as §1, §2, §3

[8] = Cytotoxicity, LDH assay, A375 cells; assay type: cell-based, human; settings: human, A375 malignant melanoma cells, 24 h, mean ± SD of three, read-out: Cell viability A375
Description: as §1, §2, §3

[9] = system: A375 human malignant melanoma cells; experiment: Cytotoxicity, LDH assay, A375 cells; assay type: cell-based; settings: Homo sapiens, A-375; 24 h treatment, 5–100 μg/mL
Description: as §1, §2, §3

[10] = Cytotoxicity, LDH assay, HTB140 cells; assay type: cell-based, human; settings: human, HTB140 melanoma cells, 24 h, mean ± SD of three, read-out: Cell viability HTB140
Description: as §1, §2, §3

[11] = system: HTB140 human melanoma cells; experiment: Cytotoxicity, LDH assay, HTB140 cells; assay type: cell-based; settings: Homo sapiens; 24 h treatment, 5–100 μg/mL
Description: as §1, §2, §3

[12] = Cytotoxicity, LDH assay, HT29 cells; assay type: cell-based, human; settings: human, HT29 colon adenocarcinoma cells, 24 h, mean ± SD of three, read-out: Cell viability HT29
Description: as §1, §2, §3

[13] = system: HT29 human colon adenocarcinoma cells; experiment: Cytotoxicity, LDH assay, HT29 cells; assay type: cell-based; settings: Homo sapiens, HT-29; 24 h treatment, 5–100 μg/mL
Description: as §1, §2, §3

**Q.** What does the source list for CC(=O)OC1CC2(C)C(C(OC(C)=O)CC3(C)C2C(O)C=C2C4C(C)C(C)(O)CC(OC(C)=O)C4(C)CCC23C)C(C)(C)C1O (stereo not drawn) [Compound 2, 2α,6β,22α-triacetoxy-urs-12-ene-3α,11α,20β-triol]?
**A.** viability at 24 h, 100 μg/mL ([1]; PNT-2 normal prostate epithelium cells, 100 μg/mL): 93.56 ± 0.5%; viability at 24 h, 5 μg/mL ([1]; PNT-2 prostate epithelial cells, 5 μg/mL): 97.49 ± 0.79%; viability at 24 h, 20 μg/mL ([1]; PNT-2 prostate epithelial cells, 20 μg/mL): 96.3 ± 1.04%; viability at 24 h, 30 μg/mL ([1]; PNT-2 prostate epithelial cells, 30 μg/mL): 95.64 ± 0.65%; viability at 24 h, 40 μg/mL ([1]; PNT-2 prostate epithelial cells, 40 μg/mL): 95.37 ± 0.75%; viability at 24 h, 50 μg/mL ([1]; PNT-2 prostate epithelial cells, 50 μg/mL): 94.56 ± 0.32%; IC50 [2]: > 100 mg/L; viability at 24 h, 5 μg/mL ([3]; 5 μg/mL): 97.3 ± 0.27%; viability at 24 h, 10 μg/mL ([3]; 10 μg/mL): 94.54 ± 0.58%; viability at 24 h, 20 μg/mL ([3]; 20 μg/mL): 90.07 ± 0.71%; viability at 24 h, 30 μg/mL ([3]; 30 μg/mL): 83.2 ± 1.24%; viability at 24 h, 40 μg/mL ([3]; 40 μg/mL): 77.1 ± 1.63%; viability at 24 h, 50 μg/mL ([3]; 50 μg/mL): 68.6 ± 1.78%; viability at 24 h, 100 μg/mL ([3]; 100 μg/mL): 57.3 ± 1.9%; IC50 [4]: > 100 mg/L; Cell viability PC3 ([5]; 100 μg/mL, 24 h, mean ± SD of three): > 47%; IC50 ([5]; Homo sapiens, PC-3, 24 h, 24 h treatment, 5–100 μg/mL): > 50 mg/L; viability at 24 h, 100 μg/mL ([6]; HaCaT immortalized keratinocytes, 100 μg/mL): 54.3 ± 1.78%; viability at 24 h, 5 μg/mL ([6]; HaCaT keratinocytes, 5 μg/mL): 96.84 ± 0.6%; viability at 24 h, 10 μg/mL ([6]; HaCaT keratinocytes, 10 μg/mL): 94.5 ± 1.55%; viability at 24 h, 20 μg/mL ([6]; HaCaT keratinocytes, 20 μg/mL): 90.6 ± 0.66%; viability at 24 h, 30 μg/mL ([6]; HaCaT keratinocytes, 30 μg/mL): 82.8 ± 1.23%; viability at 24 h, 40 μg/mL ([6]; HaCaT keratinocytes, 40 μg/mL): 75.7 ± 1.76%; viability at 24 h, 50 μg/mL ([6]; HaCaT keratinocytes, 50 μg/mL): 61.8 ± 1.55%; IC50 [7]: > 100 mg/L; viability at 24 h, 5 μg/mL ([8]; 5 μg/mL): 97.28 ± 0.33%; viability at 24 h, 10 μg/mL ([8]; 10 μg/mL): 95.28 ± 0.9%; viability at 24 h, 20 μg/mL ([8]; 20 μg/mL): 91.1 ± 1.39%; viability at 24 h, 30 μg/mL ([8]; 30 μg/mL): 87.3 ± 1.5%; viability at 24 h, 40 μg/mL ([8]; 40 μg/mL): 82.6 ± 1.36%; viability at 24 h, 50 μg/mL ([8]; 50 μg/mL): 76.2 ± 1.78%; viability at 24 h, 100 μg/mL ([8]; 100 μg/mL): 67.6 ± 1.48%; IC50 [9]: > 100 mg/L; viability at 24 h, 5 μg/mL ([10]; 5 μg/mL): 97.48 ± 0.79%; viability at 24 h, 20 μg/mL ([10]; 20 μg/mL): 96.4 ± 0.83%; viability at 24 h, 30 μg/mL ([10]; 30 μg/mL): 94.3 ± 1.45%; viability at 24 h, 40 μg/mL ([10]; 40 μg/mL): 93.7 ± 1.11%; viability at 24 h, 50 μg/mL ([10]; 50 μg/mL): 92 ± 1.64%; viability at 24 h, 100 μg/mL ([10]; 100 μg/mL): 89.5 ± 1.4%; IC50 [11]: > 100 mg/L; viability at 24 h, 5 μg/mL ([12]; 5 μg/mL): 95.76 ± 0.69%; viability at 24 h, 10 μg/mL ([12]; 10 μg/mL): 94.55 ± 0.84%; viability at 24 h, 20 μg/mL ([12]; 20 μg/mL): 90.05 ± 0.74%; viability at 24 h, 30 μg/mL ([12]; 30 μg/mL): 81.7 ± 1.56%; viability at 24 h, 40 μg/mL ([12]; 40 μg/mL): 74.8 ± 1.13%; viability at 24 h, 50 μg/mL ([12]; 50 μg/mL): 67.2 ± 1.25%; viability at 24 h, 100 μg/mL ([12]; 100 μg/mL): 56.9 ± 1.85%; IC50 [13]: > 100 mg/L
